The values that follow come from publication PMC1764880, “Acyl-CoA-binding and self-associating properties of a recombinant 13.3 kDa N-terminal fragment of diacylglycerol acyltransferase-1 from oilseed rape” (BMC Biochemistry, 2006).

Test [1] addresses T1, BnDGAT1(1–116)His6 (Brassica napus, UniProt Q9XGR5).
T1 construct: gene DGAT1; N-terminal hydrophilic cytosolic fragment, residues 1-116, followed by AALE linker and C-terminal His6 (tag kept); pET26b(+), E. coli BL21(DE3), Ni-NTA purified; calculated mass 13,278 Da; self-associates to dimer and tetramer; contains peptide 21-LDRLHRRKSSSDSSN-35
T1 sequence (Q9XGR5 1-116): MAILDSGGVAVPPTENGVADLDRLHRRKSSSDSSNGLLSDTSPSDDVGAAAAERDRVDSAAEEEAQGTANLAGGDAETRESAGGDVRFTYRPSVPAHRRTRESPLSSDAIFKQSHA
In words: Lipidex-1000 radioligand binding, Scatchard plot. Particulars: read-out: dissociation constant.

Test [2] addresses T1, BnDGAT1(1–116)His6. In words: Lipidex-1000 competition binding against [[…]-14C]oleoyl-CoA. Particulars: 8 μM free CoA displacing 19 μM [1-14C]oleoyl-CoA, 0.2 μM protein.

`CCCCCCCC/C=C\CCCCCCCCCCCC(=O)SCCNC(=O)CCNC(=O)[C@H](O)C(C)(C)COP(=O)(O)OP(=O)(O)OC[C@H]1O[C@@H](n2cnc3c(N)ncnc32)[C@H](O)[C@@H]1OP(=O)(O)O` [erucoyl-CoA]: the Kd in test [1] is about 2 µM.
`CCCCCCCC/C=C\CCCCCCCC(=O)SCCNC(=O)CCNC(=O)[C@H](O)C(C)(C)COP(=O)(O)OP(=O)(O)OC[C@H]1O[C@@H](n2cnc3c(N)ncnc32)[C@H](O)[C@@H]1OP(=O)(O)O` [oleoyl-CoA]: in test [1], the Kd is about 17 µM.
Regarding `CC(C)(COP(=O)(O)OP(=O)(O)OC[C@H]1O[C@@H](n2cnc3c(N)ncnc32)[C@H](O)[C@@H]1OP(=O)(O)O)[C@@H](O)C(=O)NCCC(=O)NCCS` [CoA], the “Lipidex-1000 competition binding against [1-14C]oleoyl-CoA” value in test [2] is “free CoA or oleoyl-CoA was effective in displacing a similar quantity of radiolabeled ligand”.
